Test results as given in patent publication US20240173419A1, “CDK2 DEGRADERS AND USES THEREOF” (Kymera Therapeutics, Inc., priority 2022, published 2024).

Biological target: T1, CDK2 (Homo sapiens, UniProt P24941)
T1 construct: endogenous in cells; host or cells: MKN1 cells
Test: CDK2 degradation in MKN1 cells (AlphaLISA)
Assay type: cell-based
Details: 14 h incubation; for DC50: read-out: CDK2 degradation 14 h: Mean external-Abs DC50
Outline: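 DC50 from four-parameter logistic fit of AlphaLISA CDK2 signal, corrected for no-cell wells. Lysates came from MKN1 cells, 2e4 per well, exposed 14 h at 37° C to compound at 0.001 nM-10 μM (1:5 series, 11 doses) in 0.1% DMSO.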

Row | CDK2 degradation 14 h: Average Dmax % | DC50 [nM] | SMILES
1 | A (A (>75% o)) | < 100 | CC1(O)CCN(c2nc(Nc3ccc(S(=O)(=O)NC4CCN(CC5CCN(c6ccc(C7CCC(=O)NC7=O)cc6F)CC5)CC4F)cc3F)ncc2C(F)(F)F)CC1 (stereo not drawn) [I-1050]
2 | B (B (>50% -75%)) | 100 to 500 | CC1(O)CCCN(c2nc(Nc3ccc(S(=O)(=O)NC4CC5CCC(C4)N5CC4CCN(c5ccc(C6CCC(=O)NC6=O)c(F)c5)CC4)cc3F)ncc2C(F)(F)F)C1 (stereo not drawn) [I-1057]
3 | A (A (>75% o)) | < 100 | CC1CC(NS(=O)(=O)c2ccc(Nc3ncc(C(F)(F)F)c(N4CCCC(C)(O)C4)n3)c(F)c2)CCN1CC1CCN(c2ccc(C3CCC(=O)NC3=O)c(F)c2)CC1 (stereo not drawn) [I-1060]
4 | A (A (>75% o)) | < 100 | CC1CN(CC2CCN(c3ccc(C4CCC(=O)NC4=O)c(F)c3)CC2)CCC1NS(=O)(=O)c1ccc(Nc2ncc(C(F)(F)F)c(N3CCCC(C)(O)C3)n2)c(F)c1 (stereo not drawn) [I-1061]
5 | A (A (>75% o)) | < 100 | CC1(O)CCCN(c2nc(Nc3ccc(S(=O)(=O)NC4CCC5(CC4)CN(CC4CCN(c6ccc(C7CCC(=O)NC7=O)c(F)c6)CC4)C5)cc3F)ncc2C(F)(F)F)C1 (stereo not drawn) [I-1064]
6 | A (A (>75% o)) | < 100 | CC(C1CCN(c2ccc(C3CCC(=O)NC3=O)c(F)c2)CC1)N1CCC(NS(=O)(=O)c2ccc(Nc3ncc(C(F)(F)F)c(N4CCCC(C)(O)C4)n3)c(F)c2)C(F)C1 (stereo not drawn) [I-1067]
7 | A (A (>75% o)) | 100 to 500 | CC1(O)CCCN(c2nc(Nc3ccc(S(=O)(=O)NC4CCN(CC5(C)CCN(c6ccc(C7CCC(=O)NC7=O)cc6F)CC5)CC4F)cc3F)ncc2C(F)(F)F)C1 (stereo not drawn) [I-1068]
8 | A (A (>75% o)) | – | [2H]C([2H])([2H])c1cc(S(=O)(=O)NC2CCC(CN3CCN(c4ccc(C5CCC(=O)NC5=O)c(F)c4)CC3)CC2)ccc1Nc1ncc(C(F)(F)F)c(N2CCCC(C)(O)C2)n1 (stereo not drawn) [I-1072]
9 | A (A (>75% o)) | 100 to 500 | CC1(O)CCC(c2nc(Nc3ccc(S(=O)(=O)NC4CCC(CN5CCN(c6ccc(C7CCC(=O)NC7=O)c(F)c6)CC5)CC4)cc3F)ncc2C(F)(F)F)CC1 (stereo not drawn) [I-1074]
10 | A (A (>75% o)) | < 100 | Cc1cc(S(=O)(=O)NC2CCC(CN3CCN(c4ccc(C5CCC(=O)NC5=O)c(F)c4)CC3)CC2)c(F)cc1Nc1ncc(C(F)(F)F)c(N2CCCC(C)(O)C2)n1 (stereo not drawn) [I-1096]
11 | A (A (>75% o)) | < 100 | CC1(O)CCCN(c2nc(Nc3ccc(S(=O)(=O)NC4CCC(CN5CCN(c6ccc(C7CCC(=O)NC7=O)cc6)CC5)CC4)cc3Cl)ncc2C(F)(F)F)C1 (stereo not drawn) [I-1100]
12 | A (A (>75% o)) | < 100 | CC1(O)CCCN(c2nc(Nc3ccc(S(=O)(=O)NC4CCC(CN5CCN(c6ccc(C7CCC(=O)NC7=O)cc6)CC5)CC4)cc3C(F)F)ncc2C(F)(F)F)C1 (stereo not drawn) [I-1102]
13 | C (C (>25% -50%)) | > 1000 | CC1(O)CCCN(c2nc(Nc3ccc(S(=O)(=O)NC4CCC(CN5CCN(c6ccc(C7CCC(=O)NC7=O)c(Cl)c6)CC5)CC4)cc3C(F)(F)F)ncc2C(F)(F)F)C1 (stereo not drawn) [I-1103]
14 | A (A (>75% o)) | 100 to 500 | CC1(O)CCCN(c2nc(Nc3ccc(S(=O)(=O)NC4CCC(CN5CCN(c6ccc(C7CCC(=O)NC7=O)cc6F)CC5)CC4)cc3OC(F)F)ncc2C(F)(F)F)C1 (stereo not drawn) [I-1111]
15 | A (A (>75% o)) | < 100 | CC1(O)CCCN(c2nc(Nc3ccc(S(=O)(=O)NC4CCC(CN5CCN(c6ccc(C7CCC(=O)NC7=O)cc6F)CC5)CC4)cc3Cl)ncc2C(F)(F)F)C1 (stereo not drawn) [I-1112]
16 | A (A (>75% o)) | < 100 | CC1(O)CCCN(c2nc(Nc3ccc(S(=O)(=O)NC4CCC(CN5CCN(c6ccc(C7CCC(=O)NC7=O)cc6F)CC5)CC4)cc3C(F)F)ncc2C(F)(F)F)C1 (stereo not drawn) [I-1113]
17 | A (A (>75% o)) | 100 to 500 | CC1(O)CCCN(c2nc(Nc3ccc(S(=O)(=O)NC4CCC(CN5CCN(c6ccc(C7CCC(=O)NC7=O)c(F)c6)CC5)CC4)cc3OC(F)F)ncc2C(F)(F)F)C1 (stereo not drawn) [I-1115]
18 | A (A (>75% o)) | < 100 | Cc1cc(S(=O)(=O)NC2CCC(CN3CCN(c4cccc(NC5CCC(=O)NC5=O)c4)CC3)CC2)ccc1Nc1ncc(C(F)(F)F)c(N2CCCC(C)(O)C2)n1 (stereo not drawn) [I-1118]

The next lines start with the molecule.

Row | SMILES | CDK2 degradation 14 h: Average Dmax % | DC50 [nM]
19 | CC1(O)CCN(c2nc(Nc3ccc(S(=O)(=O)NC4CCN(CC5CCN(c6ccc(C7CCC(=O)NC7=O)c(F)c6)CC5)CC4F)cc3F)ncc2C(F)(F)F)CC1 (stereo not drawn) [I-1051] | A (A (>75% o)) | < 100
20 | Cc1cc(S(=O)(=O)NC2CCN(CC3CCN(c4ccc(C5CCC(=O)NC5=O)cc4F)CC3)CC2F)ccc1Nc1ncc(C(F)(F)F)c(N2CCCC(C)(O)C2)n1 (stereo not drawn) [I-1054] | A (A (>75% o)) | < 100
21 | Cc1cc(S(=O)(=O)NC2CCN(CC3CCN(c4ccc(C5CCC(=O)NC5=O)cc4F)CC3)CC2F)ccc1Nc1ncc(C(F)(F)F)c(N2CCCC(C)(O)C2)n1 (stereo not drawn) [I-1055] | A (A (>75% o)) | < 100
22 | CC1(O)CCCN(c2nc(Nc3ccc(S(=O)(=O)NC4CCN(CC5CCN(c6ccc(C7CCC(=O)NC7=O)c(F)c6)CC5)CC45CC5)cc3F)ncc2C(F)(F)F)C1 (stereo not drawn) [I-1056] | A (A (>75% o)) | < 100
23 | CC1CC(NS(=O)(=O)c2ccc(Nc3ncc(C(F)(F)F)c(N4CCCC(C)(O)C4)n3)c(F)c2)CCN1CC1CCN(c2ccc(C3CCC(=O)NC3=O)c(F)c2)CC1 (stereo not drawn) [I-1059] | A (A (>75% o)) | < 100
24 | CC1CN(CC2CCN(c3ccc(C4CCC(=O)NC4=O)c(F)c3)CC2)CCC1NS(=O)(=O)c1ccc(Nc2ncc(C(F)(F)F)c(N3CCCC(C)(O)C3)n2)c(F)c1 (stereo not drawn) [I-1062] | A (A (>75% o)) | < 100
25 | CC1CN(CC2CCN(c3ccc(C4CCC(=O)NC4=O)c(F)c3)CC2)CCC1NS(=O)(=O)c1ccc(Nc2ncc(C(F)(F)F)c(N3CCCC(C)(O)C3)n2)c(F)c1 (stereo not drawn) [I-1063] | A (A (>75% o)) | < 100
26 | Cc1nn(C2CCC(=O)NC2=O)c2ccc(N3CCN(CC4CCC(NS(=O)(=O)c5ccc(Nc6ncc(C(F)(F)F)c(N7CCCC(C)(O)C7)n6)c(F)c5)CC4)CC3)cc12 (stereo not drawn) [I-1065] | A (A (>75% o)) | < 100
27 | Cc1cc(S(=O)(=O)NC2CCC(CN3CCN(c4ccc(C5CCC(=O)NC5=O)c(F)c4)CC3)CC2)ncc1Nc1ncc(C(F)(F)F)c(N2CCCC(C)(O)C2)n1 (stereo not drawn) [I-1066] | A (A (>75% o)) | < 100
28 | CC1(O)CCCN(c2nc(Nc3ccc(S(=O)(=O)NC4CCN(CC5(C)CCN(c6ccc(C7CCC(=O)NC7=O)c(F)c6)CC5)CC4F)cc3F)ncc2C(F)(F)F)C1 (stereo not drawn) [I-1069] | A (A (>75% o)) | < 100
29 | COCc1cc(S(=O)(=O)NC2CCC(CN3CCN(c4ccc(C5CCC(=O)NC5=O)c(F)c4)CC3)CC2)ccc1Nc1ncc(C(F)(F)F)c(N2CCCC(C)(O)C2)n1 (stereo not drawn) [I-1070] | A (A (>75% o)) | < 100
30 | Cc1cc(S(=O)(=O)NC2CCC(CN3CCN(c4ccc(C5CCC(=O)NC5=O)c(F)c4)CC3)CC2)ccc1Nc1ncc(C(F)(F)F)c(N2CCCC(C)(O)C2)n1 (stereo not drawn) [I-1072] | – | < 100
31 | CC1(O)CCCN(c2nc(Nc3ccc(S(=O)(=O)NC4CC(CCN5CCN(c6ccc(C7CCC(=O)NC7=O)c(F)c6)CC5)C4)cc3C(F)F)ncc2C(F)(F)F)C1 (stereo not drawn) [I-1073] | B (B (>50% -75%)) | < 100
32 | CC1(O)CCCN(c2nc(Nc3ccc(S(=O)(=O)NC4CCC(CCN5CCN(c6ccc(C7CCC(=O)NC7=O)c(F)c6)CC5)CC4)cc3C(F)F)ncc2C(F)(F)F)C1 (stereo not drawn) [I-1076] | B (B (>50% -75%)) | 100 to 500
33 | Cc1cc(S(=O)(=O)NC2CCC(CN3CCN(c4ccc(C5CCC(=O)NC5=O)c(F)c4)CC3)CC2)cc(F)c1Nc1ncc(C(F)(F)F)c(N2CCCC(C)(O)C2)n1 (stereo not drawn) [I-1097] | A (A (>75% o)) | < 100
34 | CC1(O)CCCN(c2nc(Nc3ccc(S(=O)(=O)NC4CCC(CN5CCN(c6ccc(C7CCC(=O)NC7=O)cc6)CC5)CC4)cc3C(F)(F)F)ncc2C(F)(F)F)C1 (stereo not drawn) [I-1101] | B (B (>50% -75%)) | 100 to 500
35 | CC1(O)CCCN(c2nc(Nc3ccc(S(=O)(=O)NC4CCC(CN5CCN(c6ccc(C7CCC(=O)NC7=O)c(Cl)c6)CC5)CC4)cc3C(F)F)ncc2C(F)(F)F)C1 (stereo not drawn) [I-1104] | A (A (>75% o)) | < 100
36 | Cc1c(Nc2ncc(C(F)(F)F)c(N3CCCC(C)(O)C3)n2)ccc(S(=O)(=O)NC2CCC(CN3CCN(c4ccc(C5CCC(=O)NC5=O)c(F)c4)CC3)CC2)c1F (stereo not drawn) [I-1105] | A (A (>75% o)) | < 100
37 | CC1(O)CCCN(c2nc(Nc3ccc(S(=O)(=O)NC4CCC(CN5CCN(c6ccc(C7CCC(=O)NC7=O)c(Cl)c6)CC5)CC4)cc3F)ncc2C(F)(F)F)C1 (stereo not drawn) [I-1107] | A (A (>75% o)) | < 100
38 | CC1(O)CCCN(c2nc(Nc3ccc(S(=O)(=O)NC4CCC(CN5CCN(c6ccc(C7CCC(=O)NC7=O)cc6F)CC5)CC4)cc3C(F)(F)F)ncc2C(F)(F)F)C1 (stereo not drawn) [I-1110] | B (B (>50% -75%)) | 100 to 500
39 | CC1(O)CCCN(c2nc(Nc3ccc(S(=O)(=O)NC4CCC(CN5CCN(c6ccc(C7CCC(=O)NC7=O)c(F)c6)CC5)CC4)cc3C(F)(F)F)ncc2C(F)(F)F)C1 (stereo not drawn) [I-1114] | B (B (>50% -75%)) | 100 to 500
40 | CC1(O)CCCN(c2nc(Nc3ccc(S(=O)(=O)NC4CCC(CN5CCN(c6ccc(C7CCC(=O)NC7=O)c(F)c6)CC5)CC4)cc3F)ncc2C(F)(F)F)C1 (stereo not drawn) [I-1117] | A (A (>75% o)) | < 100
